No end group written: not given here.
What was measured:
Assay type in all cases: cell-based, human
Details in all cases: 24 h
[1] = system: SW579 cells of thyroid cancer; experiment: transwell migration test
Description: (§1) Inoculate SCC4 cells of head and neck cancer, SW579 cells of thyroid cancer, A549 cells of lung cancer, TE13 cells of esophageal squamous cell carcinoma, MGC803 cells of stomach cancer, MDA-MB-231 cells of breast cancer, UOK262 cells of kidney cancer, and A431 cells of skin cancer of human to transwell cells, 100 μL per well, and meanwhile add micropeptides HMMW I to IX at different doses to every cell. Add 0.6 mL of complete medium containing 10% FBS to the transwell cells to stimulate cell migration, and culture in 5% CO2 at 37 DEG C. for 24 h. Discard the medium in the wells, fix with 90% alcohol at room temperature for 30 min, stain with 0.1% crystal violet at room temperature for 10 min, rinse with clear water, gently wipe off the non-migrated cells in the upper layer with a cotton swab, observe under a microscope and select four fields of view to take pictures and count. Calculate the migration inhibition rate (MIR) of the cells according to the following formula: […]
(§2) The test was repeated independently three times. Mean±SD was calculated based on the test results. Statistical t test was done. Here, “the test was repeated independently three times” means that every dose of any type of cells was tested repeatedly three times, and then the above formula was used to calculate the number of migrated cells (Mean±SD). Value P was used to express statistical difference. The statistical significance of the results is a method for estimating how true the results are (the totality can be represented), *P<0.05 means significant difference, and **P<0.01 means very significant difference.

[2] = system: A431 cells of skin cancer; experiment: transwell migration test
Description: as §1, §2

[3] = system: MDA-MB-231 cells of breast cancer; experiment: transwell migration test
Description: as §1, §2

[4] = system: UOK262 cells of kidney cancer; experiment: transwell migration test
Description: as §1, §2

[5] = system: MGC803 cells of stomach cancer; experiment: transwell migration test
Description: as §1, §2

[6] = system: SCC4 cells of head and neck cancer; experiment: transwell migration test
Description: as §1, §2

[7] = system: TE13 cells of esophageal squamous cell carcinoma; experiment: transwell migration test
Description: as §1, §2

[8] = system: A549 cells of lung cancer; experiment: transwell migration test
Description: as §1, §2

[9] = system: SW579 cells of thyroid cancer; experiment: Matrigel transwell invasion test
Description: (§3) Dilute 10 mg/mL Matrigel with culture medium at 1:3, spread it on membranes of transwell cells and dry it in the air at room temperature. Use trypsin to digest and collect SCC4 cells of head and neck cancer, SW579 cells of thyroid cancer, A549 cells of lung cancer, TE13 cells of esophageal squamous cell carcinoma, MGC803 cells of stomach cancer, MDA-MB-231 cells of breast cancer, UOK262 cells of kidney cancer, and A431 cells of skin cancer of human, which were cultured to the logarithmic phase, wash with PBS twice and re-suspend with a blank culture medium. Adjust cell concentration to 1×10^5 cells/mL. Inoculate the cells to transwell cells, 100 μL per well, and meanwhile add micropeptides HMMW I to IX at different doses to every cell. Add 0.6 mL of complete medium containing 10% FBS to the transwell cells to stimulate cell invasion, and culture in 5% CO2 at 37 DEG C. for 24 h. Discard the medium in the wells, fix with 90% alcohol at room temperature for 30 min, stain with 0.1% crystal violet at room temperature for 10 min, rinse with clear water, gently wipe off the non-invaded cells in the upper layer with a cotton swab, observe under a microscope and select four fields of view to take pictures and count. Calculate the invasion inhibition rate (IIR) of the cells according to the following formula:
(§4) [formula] where Ntest is the number of invaded cells in the test groups (the groups at a dose of 1, 4 or 16 μM in the table), Ncontrol is the number of invaded cells in the blank control groups (the groups at a dose of 0 μM in the table). The test was repeated independently three times. Mean±SD was calculated based on the test results. Statistical t test was done. Value P was used to express statistical difference. The statistical significance of the results is a method for estimating how true the results are (the totality can be represented), *P<0.05 means significant difference, and **P<0.01 means very significant difference.

[10] = system: A431 cells of skin cancer; experiment: Matrigel transwell invasion test
Description: as §3, §4

[11] = system: MDA-MB-231 cells of breast cancer; experiment: Matrigel transwell invasion test
Description: as §3, §4

[12] = system: UOK262 cells of kidney cancer; experiment: Matrigel transwell invasion test
Description: as §3, §4

[13] = system: MGC803 cells of stomach cancer; experiment: Matrigel transwell invasion test
Description: as §3, §4

[14] = system: SCC4 cells of head and neck cancer; experiment: Matrigel transwell invasion test
Description: as §3, §4

[15] = system: TE13 cells of esophageal squamous cell carcinoma; experiment: Matrigel transwell invasion test
Description: as §3, §4

[16] = system: A549 cells of lung cancer; experiment: Matrigel transwell invasion test
Description: as §3, §4

MGSTGVPGFSPRRSSVEAKMQSTSCSVRKSSTVTAWPAVVLLLSWGQRRGG-OH [HMMW-VII]
migration inhibition rate ([1]; dose 1 μM): 20.80%
migration inhibition rate ([1]; dose 4 μM): 53.13%
migration inhibition rate ([1]; dose 16 μM): 70.92%
migration inhibition rate ([2]; dose 1 μM): 32.10%
migration inhibition rate ([2]; dose 4 μM): 52.22%
migration inhibition rate ([2]; dose 16 μM): 70.11%
migration inhibition rate ([3]; dose 1 μM): 28.27%
migration inhibition rate ([3]; dose 4 μM): 50.14%
migration inhibition rate ([3]; dose 16 μM): 72.15%
migration inhibition rate ([4]; dose 1 μM): 19.24%
migration inhibition rate ([4]; dose 4 μM): 40.21%
migration inhibition rate ([4]; dose 16 μM): 72.40%
migration inhibition rate ([5]; dose 1 μM): 26.60%
migration inhibition rate ([5]; dose 4 μM): 51.31%
migration inhibition rate ([5]; dose 16 μM): 70.62%
migration inhibition rate ([6]; dose 1 μM): 17.42%
migration inhibition rate ([6]; dose 4 μM): 44.61%
migration inhibition rate ([6]; dose 16 μM): 72.34%
migration inhibition rate ([7]; dose 1 μM): 23.64%
migration inhibition rate ([7]; dose 4 μM): 41.21%
migration inhibition rate ([7]; dose 16 μM): 63.30%
migration inhibition rate ([8]; dose 1 μM): 35.01%
migration inhibition rate ([8]; dose 4 μM): 53.91%
migration inhibition rate ([8]; dose 16 μM): 71.36%
invasion inhibition rate ([9]; dose 1 μM): 20.11%
invasion inhibition rate ([9]; dose 4 μM): 43.72%
invasion inhibition rate ([9]; dose 16 μM): 63.71%
invasion inhibition rate ([10]; dose 1 μM): 34.70%
invasion inhibition rate ([10]; dose 4 μM): 55.51%
invasion inhibition rate ([10]; dose 16 μM): 69.24%
invasion inhibition rate ([11]; dose 1 μM): 27.91%
invasion inhibition rate ([11]; dose 4 μM): 49.55%
invasion inhibition rate ([11]; dose 16 μM): 74.32%
invasion inhibition rate ([12]; dose 1 μM): 36.74%
invasion inhibition rate ([12]; dose 4 μM): 56.26%
invasion inhibition rate ([12]; dose 16 μM): 67.62%
invasion inhibition rate ([13]; dose 1 μM): 29.50%
invasion inhibition rate ([13]; dose 4 μM): 54.34%
invasion inhibition rate ([13]; dose 16 μM): 69.57%
invasion inhibition rate ([14]; dose 1 μM): 19.70%
invasion inhibition rate ([14]; dose 4 μM): 43.11%
invasion inhibition rate ([14]; dose 16 μM): 70.84%
invasion inhibition rate ([15]; dose 1 μM): 25.11%
invasion inhibition rate ([15]; dose 4 μM): 45.36%
invasion inhibition rate ([15]; dose 16 μM): 67.52%
invasion inhibition rate ([16]; dose 1 μM): 32.22%
invasion inhibition rate ([16]; dose 4 μM): 52.42%
invasion inhibition rate ([16]; dose 16 μM): 64.02%

MGSTYNPGFSPRRSSVEAKMQSTSCSVRKSSTVTAWPAVVLLLSWGQRRGG-OH [HMMW-V]
migration inhibition rate ([1]; dose 1 μM): 17.45%
migration inhibition rate ([1]; dose 4 μM): 51.13%
migration inhibition rate ([1]; dose 16 μM): 71.93%
migration inhibition rate ([2]; dose 1 μM): 30.14%
migration inhibition rate ([2]; dose 4 μM): 54.12%
migration inhibition rate ([2]; dose 16 μM): 70.12%
migration inhibition rate ([3]; dose 1 μM): 28.07%
migration inhibition rate ([3]; dose 4 μM): 50.24%
migration inhibition rate ([3]; dose 16 μM): 74.18%
migration inhibition rate ([4]; dose 1 μM): 18.29%
migration inhibition rate ([4]; dose 4 μM): 42.28%
migration inhibition rate ([4]; dose 16 μM): 72.43%
migration inhibition rate ([5]; dose 1 μM): 27.64%
migration inhibition rate ([5]; dose 4 μM): 54.41%
migration inhibition rate ([5]; dose 16 μM): 75.82%
migration inhibition rate ([6]; dose 1 μM): 18.36%
migration inhibition rate ([6]; dose 4 μM): 44.67%
migration inhibition rate ([6]; dose 16 μM): 71.04%
migration inhibition rate ([7]; dose 1 μM): 23.74%
migration inhibition rate ([7]; dose 4 μM): 42.23%
migration inhibition rate ([7]; dose 16 μM): 64.31%
migration inhibition rate ([8]; dose 1 μM): 35.01%
migration inhibition rate ([8]; dose 4 μM): 53.91%
migration inhibition rate ([8]; dose 16 μM): 71.36%
invasion inhibition rate ([9]; dose 1 μM): 19.09%
invasion inhibition rate ([9]; dose 4 μM): 44.23%
invasion inhibition rate ([9]; dose 16 μM): 64.14%
invasion inhibition rate ([10]; dose 1 μM): 32.19%
invasion inhibition rate ([10]; dose 4 μM): 51.35%
invasion inhibition rate ([10]; dose 16 μM): 69.29%
invasion inhibition rate ([11]; dose 1 μM): 27.25%
invasion inhibition rate ([11]; dose 4 μM): 48.37%
invasion inhibition rate ([11]; dose 16 μM): 70.50%
invasion inhibition rate ([12]; dose 1 μM): 33.43%
invasion inhibition rate ([12]; dose 4 μM): 53.27%
invasion inhibition rate ([12]; dose 16 μM): 66.14%
invasion inhibition rate ([13]; dose 1 μM): 26.53%
invasion inhibition rate ([13]; dose 4 μM): 50.24%
invasion inhibition rate ([13]; dose 16 μM): 68.38%
invasion inhibition rate ([14]; dose 1 μM): 20.34%
invasion inhibition rate ([14]; dose 4 μM): 46.26%
invasion inhibition rate ([14]; dose 16 μM): 74.71%
invasion inhibition rate ([15]; dose 1 μM): 20.29%
invasion inhibition rate ([15]; dose 4 μM): 42.74%
invasion inhibition rate ([15]; dose 16 μM): 66.69%
invasion inhibition rate ([16]; dose 1 μM): 31.19%
invasion inhibition rate ([16]; dose 4 μM): 51.27%
invasion inhibition rate ([16]; dose 16 μM): 64.25%

MERAGVPGFSPRRSSVEAKMQSTSCSVRKSSTVTAWPAVVLLLSWGQRRGG-OH [HMMW-I]
migration inhibition rate ([1]; dose 1 μM): 19.81%
migration inhibition rate ([1]; dose 4 μM): 51.03%
migration inhibition rate ([1]; dose 16 μM): 70.98%
migration inhibition rate ([2]; dose 1 μM): 33.19%
migration inhibition rate ([2]; dose 4 μM): 55.17%
migration inhibition rate ([2]; dose 16 μM): 73.22%
migration inhibition rate ([3]; dose 1 μM): 28.06%
migration inhibition rate ([3]; dose 4 μM): 50.34%
migration inhibition rate ([3]; dose 16 μM): 75.38%
migration inhibition rate ([4]; dose 1 μM): 15.39%
migration inhibition rate ([4]; dose 4 μM): 42.38%
migration inhibition rate ([4]; dose 16 μM): 71.47%
migration inhibition rate ([5]; dose 1 μM): 27.61%
migration inhibition rate ([5]; dose 4 μM): 53.45%
migration inhibition rate ([5]; dose 16 μM): 76.80%
migration inhibition rate ([6]; dose 1 μM): 17.85%
migration inhibition rate ([6]; dose 4 μM): 42.97%
migration inhibition rate ([6]; dose 16 μM): 77.00%
migration inhibition rate ([7]; dose 1 μM): 23.76%
migration inhibition rate ([7]; dose 4 μM): 42.29%
migration inhibition rate ([7]; dose 16 μM): 68.32%
migration inhibition rate ([8]; dose 1 μM): 35.00%
migration inhibition rate ([8]; dose 4 μM): 53.95%
migration inhibition rate ([8]; dose 16 μM): 73.46%
invasion inhibition rate ([9]; dose 1 μM): 19.63%
invasion inhibition rate ([9]; dose 4 μM): 44.76%
invasion inhibition rate ([9]; dose 16 μM): 64.89%
invasion inhibition rate ([10]; dose 1 μM): 32.74%
invasion inhibition rate ([10]; dose 4 μM): 51.22%
invasion inhibition rate ([10]; dose 16 μM): 69.37%
invasion inhibition rate ([11]; dose 1 μM): 27.97%
invasion inhibition rate ([11]; dose 4 μM): 48.95%
invasion inhibition rate ([11]; dose 16 μM): 70.49%
invasion inhibition rate ([12]; dose 1 μM): 33.80%
invasion inhibition rate ([12]; dose 4 μM): 53.12%
invasion inhibition rate ([12]; dose 16 μM): 66.67%
invasion inhibition rate ([13]; dose 1 μM): 26.12%
invasion inhibition rate ([13]; dose 4 μM): 50.08%
invasion inhibition rate ([13]; dose 16 μM): 68.62%
invasion inhibition rate ([14]; dose 1 μM): 20.75%
invasion inhibition rate ([14]; dose 4 μM): 46.24%
invasion inhibition rate ([14]; dose 16 μM): 74.84%
invasion inhibition rate ([15]; dose 1 μM): 20.43%
invasion inhibition rate ([15]; dose 4 μM): 42.86%
invasion inhibition rate ([15]; dose 16 μM): 66.51%
invasion inhibition rate ([16]; dose 1 μM): 31.23%
invasion inhibition rate ([16]; dose 4 μM): 51.32%
invasion inhibition rate ([16]; dose 16 μM): 64.08%

From patent publication US12565522B2, “Micropeptide HMMW and application thereof” (NANJING ANJI BIOTECHNOLOGY CO., LTD., priority 2019, dated 2026)
